± gives the expanded uncertainty stated by the source.
Test: xn = mol fraction of the nth substance listed
Conditions: 343.15 K, Liquid, Vibrating tube method

CCCCCCCC [octane] + CCCO
Conditions	mass density [kg/m3]
100 kPa, x2 = 0.1631	665.21 ± 4.3
100 kPa, x2 = 0.2111	667.28 ± 4.3
100 kPa, x2 = 0.3158	672.81 ± 4.3
100 kPa, x2 = 0.4411	681.54 ± 4.4
100 kPa, x2 = 0.7301	709.96 ± 4.5
100 kPa, x2 = 0.8823	734.38 ± 4.7
1000 kPa, x2 = 0.8823	735.58 ± 4.7
1010 kPa, x2 = 0.2111	668.8 ± 4.3
1010 kPa, x2 = 0.4411	682.72 ± 4.4
1010 kPa, x2 = 0.7301	711.47 ± 4.6
1020 kPa, x2 = 0.1631	666.65 ± 4.3
1020 kPa, x2 = 0.3158	674.29 ± 4.3
2000 kPa, x2 = 0.1631	667.79 ± 4.3
2010 kPa, x2 = 0.2111	669.99 ± 4.3
2010 kPa, x2 = 0.4411	683.85 ± 4.4
2010 kPa, x2 = 0.8823	736.66 ± 4.7
2020 kPa, x2 = 0.3158	675.48 ± 4.3
2020 kPa, x2 = 0.7301	712.6 ± 4.6
3000 kPa, x2 = 0.2111	671.1 ± 4.3
3000 kPa, x2 = 0.3158	676.61 ± 4.3
3000 kPa, x2 = 0.4411	685.01 ± 4.4
3010 kPa, x2 = 0.7301	713.72 ± 4.6
3020 kPa, x2 = 0.1631	668.96 ± 4.3
3020 kPa, x2 = 0.8823	737.74 ± 4.7
4000 kPa, x2 = 0.3158	677.77 ± 4.3
4000 kPa, x2 = 0.8823	738.79 ± 4.7
4010 kPa, x2 = 0.4411	686.15 ± 4.4
4010 kPa, x2 = 0.7301	714.83 ± 4.6
4020 kPa, x2 = 0.1631	670.09 ± 4.3
4020 kPa, x2 = 0.2111	672.25 ± 4.3
5000 kPa, x2 = 0.7301	715.96 ± 4.6
5010 kPa, x2 = 0.1631	671.22 ± 4.3
5010 kPa, x2 = 0.4411	687.28 ± 4.4
5010 kPa, x2 = 0.8823	739.88 ± 4.7
5020 kPa, x2 = 0.2111	673.37 ± 4.3
5020 kPa, x2 = 0.3158	678.9 ± 4.3
6010 kPa, x2 = 0.1631	672.33 ± 4.3
6010 kPa, x2 = 0.4411	688.39 ± 4.4
6010 kPa, x2 = 0.8823	740.91 ± 4.8
6020 kPa, x2 = 0.2111	674.49 ± 4.3
6020 kPa, x2 = 0.3158	680.02 ± 4.4
6020 kPa, x2 = 0.7301	717.05 ± 4.6
7000 kPa, x2 = 0.8823	741.99 ± 4.8
7010 kPa, x2 = 0.1631	673.46 ± 4.3
7010 kPa, x2 = 0.2111	675.59 ± 4.3
7010 kPa, x2 = 0.4411	689.51 ± 4.4
7010 kPa, x2 = 0.7301	718.15 ± 4.6
7020 kPa, x2 = 0.3158	681.12 ± 4.4
8000 kPa, x2 = 0.2111	676.71 ± 4.3
8000 kPa, x2 = 0.3158	682.22 ± 4.4
8000 kPa, x2 = 0.8823	743 ± 4.8
8010 kPa, x2 = 0.1631	674.54 ± 4.3
8010 kPa, x2 = 0.4411	690.61 ± 4.4
8020 kPa, x2 = 0.7301	719.22 ± 4.6
9000 kPa, x2 = 0.1631	675.63 ± 4.3
9000 kPa, x2 = 0.4411	691.72 ± 4.4
9000 kPa, x2 = 0.7301	720.31 ± 4.6
9010 kPa, x2 = 0.2111	677.8 ± 4.3
9010 kPa, x2 = 0.3158	683.34 ± 4.4
9010 kPa, x2 = 0.8823	744.04 ± 4.8
10010 kPa, x2 = 0.2111	678.85 ± 4.3
10010 kPa, x2 = 0.3158	684.4 ± 4.4
10010 kPa, x2 = 0.4411	692.81 ± 4.4
10010 kPa, x2 = 0.8823	745.05 ± 4.8
10020 kPa, x2 = 0.1631	676.71 ± 4.3
10020 kPa, x2 = 0.7301	721.36 ± 4.6
11000 kPa, x2 = 0.4411	693.87 ± 4.5
11010 kPa, x2 = 0.2111	679.93 ± 4.4
11010 kPa, x2 = 0.3158	685.49 ± 4.4
11020 kPa, x2 = 0.1631	677.8 ± 4.3
11020 kPa, x2 = 0.7301	722.39 ± 4.6
11020 kPa, x2 = 0.8823	746.05 ± 4.8
12000 kPa, x2 = 0.3158	686.55 ± 4.4
12010 kPa, x2 = 0.2111	681 ± 4.4
12010 kPa, x2 = 0.7301	723.42 ± 4.6
12010 kPa, x2 = 0.8823	747.05 ± 4.8
12020 kPa, x2 = 0.1631	678.83 ± 4.3
12020 kPa, x2 = 0.4411	694.93 ± 4.5
13000 kPa, x2 = 0.2111	682.04 ± 4.4
13010 kPa, x2 = 0.3158	687.6 ± 4.4
13010 kPa, x2 = 0.4411	695.99 ± 4.5
13010 kPa, x2 = 0.8823	748.05 ± 4.8
13020 kPa, x2 = 0.1631	679.88 ± 4.4
13020 kPa, x2 = 0.7301	724.48 ± 4.6
14000 kPa, x2 = 0.2111	683.07 ± 4.4
14000 kPa, x2 = 0.7301	725.49 ± 4.7
14000 kPa, x2 = 0.8823	749.02 ± 4.8
14010 kPa, x2 = 0.1631	680.88 ± 4.4
14010 kPa, x2 = 0.4411	697.01 ± 4.5
14020 kPa, x2 = 0.3158	688.64 ± 4.4
15000 kPa, x2 = 0.2111	684.09 ± 4.4
15000 kPa, x2 = 0.8823	749.96 ± 4.8
15010 kPa, x2 = 0.1631	681.89 ± 4.4
15010 kPa, x2 = 0.3158	689.64 ± 4.4

Reference: the NIST ThermoML archive (doi:10.1021/acs.jced.8b00554)
